# Results from article PMC8119466, “A screen of FDA-approved drugs identifies inhibitors of protein tyrosine phosphatase 4A3 (PTP4A3 or PRL-3)” (Scientific Reports, 2021).
# Counter-ions that a name gives are not always drawn. Like-named read-outs stand apart in the source and are kept apart here.
# Key:
# Type in all cases: biochemical
# recombinant PRL-1 = molecular target: T1, recombinant PRL-1 (Homo sapiens, UniProt Q93096); assay: In vitro phosphatase assay (DiFMUP hydrolysis), PRL-1; further: test concentration or dose not given here
# T1 construct: 6xHis (N, cleaved yes); made in house; host or cells: E. coli One Shot BL21 Star
# T1 sequence (Q93096 1-173): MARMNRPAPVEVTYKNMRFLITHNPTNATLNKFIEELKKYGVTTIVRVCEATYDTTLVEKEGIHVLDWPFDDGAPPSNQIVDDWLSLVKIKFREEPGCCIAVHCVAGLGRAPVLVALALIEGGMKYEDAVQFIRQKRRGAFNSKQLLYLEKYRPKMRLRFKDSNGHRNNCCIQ
# recombinant PRL-2 = molecular target: T2, recombinant PRL-2 (Homo sapiens, UniProt Q12974); assay: In vitro phosphatase assay (DiFMUP hydrolysis), PRL-2;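 further: PRL-2 activity read as DiFMUP hydrolysis after 20 min at room temperature with drug, enzyme first pre-reduced at 4 °C for 20 min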
# T2 construct: 6xHis (N, cleaved yes); made in house; host or cells: E. coli One Shot BL21 Star
# T2 sequence (Q12974 1-167): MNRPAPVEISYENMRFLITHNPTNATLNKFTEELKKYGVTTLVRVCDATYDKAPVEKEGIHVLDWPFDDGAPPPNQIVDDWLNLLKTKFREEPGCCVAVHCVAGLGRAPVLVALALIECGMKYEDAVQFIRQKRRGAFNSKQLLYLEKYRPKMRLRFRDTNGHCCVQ
# recombinant PRL-3 = molecular target: T3, recombinant PRL-3 (Homo sapiens, UniProt O75365); assay: In vitro phosphatase assay (DiFMUP hydrolysis), PRL-3; further: test concentration or dose not given here
# T3 construct: 6xHis (N, cleaved yes); made in house; host or cells: E. coli One Shot BL21 Star
# [1] = FDA-approved drug screen, compared to DMSO
# T3 sequence (O75365 whole entry): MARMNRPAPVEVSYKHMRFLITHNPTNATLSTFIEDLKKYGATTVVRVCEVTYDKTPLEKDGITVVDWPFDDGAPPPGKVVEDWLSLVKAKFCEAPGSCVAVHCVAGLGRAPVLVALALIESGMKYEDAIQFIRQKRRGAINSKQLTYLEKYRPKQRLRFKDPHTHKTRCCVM
Structure (SMILES),% Phosphatase Activity (compared to DMSO) PRL-1 (recombinant PRL-1; [1]) [%],% Phosphatase Activity (compared to DMSO) PRL-2 (recombinant PRL-2; [1]) [%],% Phosphatase Activity (compared to DMSO) PRL-3 (recombinant PRL-3; [1]) [%],% Phosphatase Activity (compared to DMSO) PRL-1 (recombinant PRL-1) [%],% Phosphatase Activity (compared to DMSO) PRL-2 (recombinant PRL-2) [%],% Phosphatase Activity (compared to DMSO) PRL-3 (recombinant PRL-3) [%]
CC1COc2c(N3CCN(C)CC3)c(F)cc3c(=O)c(C(=O)O)cn1c23 (stereo not drawn) [Ofloxacin],301,271,134,,,
Cc1cc2c(s1)Nc1ccccc1N=C2N1CCN(C)CC1 [Olanzapine],99,97,80,,,
"O=C(c1cc(Cc2n[nH]c(=O)c3ccccc23)ccc1F)N1CCN(C(=O)C2CC2)CC1 [Olaparib (AZD2281, Ku-0059436)]",88,101,91,,,
CCCc1nc(C(C)(C)O)c(C(=O)OCc2oc(=O)oc2C)n1Cc1ccc(-c2ccccc2-c2nnn[nH]2)cc1 [Olmesartan Medoxomil],97,93,76,,,
"C=CC(=O)Nc1cccc(Oc2nc(Nc3ccc(N4CCN(C)CC4)cc3)nc3ccsc23)c1 [Olmutinib (HM61713, BI 1482694)]",90,87,94,,,
CN(C)CC/C=C1/c2ccccc2COc2ccc(CC(=O)O)cc21 [Olopatadine HCl],116,121,74,,,
O=C(O)c1cc(/N=N/c2ccc(O)c(C(=O)O)c2)ccc1O [Olsalazine Sodium],59,53,61,,,
Cc1c(-c2cnccn2)ssc1=S [Oltipraz],,,,90,73,76
COc1ccc2[nH]c([S+]([O-])Cc3ncc(C)c(OC)c3C)nc2c1 (stereo not drawn) [Omeprazole],89,96,54,,,
Cc1nccn1CC1CCc2c(c3ccccc3n2C)C1=O.Cl (stereo not drawn) [Ondansetron HCl],103,108,96,,,
CCCCCCCCCCC[C@@H](C[C@@H]1OC(=O)[C@H]1CCCCCC)OC(=O)[C@H](CC(C)C)NC=O [Orlistat],113,91,79,,,
Cc1ncc([N+](=O)[O-])n1CC(O)CCl (stereo not drawn) [Ornidazole],104,102,84,,,
O=C(O)c1cc(=O)[nH]c(=O)[nH]1.O=C(O)c1cc(=O)[nH]c(=O)[nH]1 [Orotic acid (6-Carboxyuracil)],106,109,95,,,
CCOC(=O)C1=C[C@@H](OC(CC)CC)[C@H](NC(C)=O)[C@@H](N)C1 [Oseltamivir Phosphate],91,102,94,,,
OCCOc1ccc(/C(=C(/CCCl)c2ccccc2)c2ccccc2)cc1 [Ospemifene],,,,96,109,81
CCNC1(C(N)=O)CCN(c2ncnc3c2nc(-c2ccccc2Cl)n3-c2ccc(Cl)cc2)CC1.Cl [Otenabant (CP-945598) HCl],96,78,97,,,
CCCCCCCCOc1ccccc1C(=O)Nc1ccc(C(=O)OCC[N+](C)(CC)CC)cc1 [Otilonium Bromide],102,105,111,,,
Cc1onc(-c2ccccc2)c1C(=O)N[C@@H]1C(=O)N2[C@@H]1SC(C)(C)[C@@H]2C(=O)[O-].O.[Na+] [Oxacillin sodium monohydrate],98,90,83,,,
O=C(O)C(=O)O.[NH-][C@@H]1CCCC[C@H]1[NH-].[Pt+2] [Oxaliplatin],92,97,76,,,
